Assay results: article PMC10628858, “Investigation of new ferrocenyl-artesunate derivatives as antiparasitics” (Dalton Transactions (Cambridge, England : 2003), 2023)

Tests used:
T. gondii = assay: Determination of intracellular ROS levels with CellROX by flow cytometry; type: cell-based, Toxoplasma gondii; conditions: 5 μM, 6 hours, 50 000 parasites, vs untreated
Protocol: Since both ferrocene and artesunate are able to generate ROS, we attempted to quantify the intracellular ROS levels in the parasite using CellROX, a compound which fluoresces in the presence of ROS. Treatment with artesunate was included as positive control as previous studies have linked artesunate treatment to ROS accumulation.[44] The parasites were treated with 5 μM of complexes C1, C3 and C4, and incubated for 6 hours. […] Since T. gondii rely predominately on heme biosynthesis as opposed to incorporation of heme from host hemoglobin, the concentration of iron present in the parasite is lower.[45] But, by incorporating an iron center in the molecule the slower activation may be circumvented leading to quicker cell death and a decreased CellROX reading.
Fig. 5 CellROX fluorescence quantified by flow cytometry from 50 000 parasites. T. gondii were untreated (grey) or treated for 6 hours with 5 μM compounds (blue) or artesunate (red) as a positive control.
Intracellular parasites were treated with 5 μM of the drug and incubated at 37 °C with 5% CO2 for either 18 hours or 6 hours. The parasites were released from host cells by scraping and syringing followed by passing through 3 μm filters to remove host-cell debris. The parasites were spun down at 6000 RPM for 10 minutes and resuspended in 500 μL PBS. 100 μL of the parasite suspension was placed in a FACS tube and a stock solution of CellROX dye in PBS (1 : 125 dilution) was added to this. This was then incubated in the dark at 37 °C for 1 hour and then read using a BD Celesta. Parasites were gated on forward and side scatter and on mNeonGreen fluorescence and histograms of Cy5 signal presented. Data analysis was performed using Flowjo.

[1] = Cyclic voltammetry (oxidation/reduction potentials); type: physicochemical; conditions: Ag/AgCl electrode, scan rate 100 mV s^−1, 0.100 M [NBu4][PF6] in MeCN
P. falciparum, NF54 = assay: P. falciparum growth inhibition assay (Malstat); type: cell-based, Plasmodium falciparum; conditions: 72 h, maximum concentration tested 6000 nM, three independent experiments in triplicate, ± SEM; read-out: IC50 against P. falciparum, NF54
Protocol: The antimalarial activities of C1 to C4 and F1 to F3 were determined against the wild-type drug sensitive strain of P. falciparum, NF54. […]. Further, a close link between activity and oxidation potentials of the drugs was found. The lower the oxidation potential of the ferrocene moiety, the higher the activity of the final compound, giving directions for future compound development.
The drugs were prepared as 10 mM stocks in sterile DMSO. The drugs were then diluted using freshly prepared growth medium to the desired testing concentrations. Chloroquine and artesunate were used as standards. A full dose–response was preformed using a 96-well plate assay and the IC50 values determined. The maximum concentration tested was 6 μM which was then serially diluted 2-fold in growth media. The plates were incubated at 37 °C for 72 h at 3% O2 and 4% CO2. After 72 h the wells were resuspended and 15 μL of the suspension was transferred to a duplicate plate containing 100 μL of Malstat reagent and 25 μL of nitroblue tetrazolium solution. The plates were allowed 20 minutes in the dark to develop and the absorbance of each well was measured using UV-Vis at 620 nm.

[2] = Aqueous stability (hydrolysis) by UV-Vis kinetic scan in 10% MeOH (aq); type: physicochemical
Protocol: Since biological systems are comprised of water, the behavior and stability of a drug in aqueous media is important. To determine the stability, each complex was dissolved in MeOH and then diluted to 10% MeOH (aq). The solutions were then monitored by UV-Vis spectroscopy using a kinetic scan in the range 190–1100 nm over 1 hour. […] Hydrolysis was also supported by RP-HPLC in which new peaks emerged corresponding to the starting ferrocene precursors, F2 and F4. […] […] The major difference being between C1/C2 and C3/C4 is the nature of the linkage either being an ester or an amide bond. It is expected that the hydrolysis of C2 would occur quicker due to the more labile nature of the ester bond.
UV-Vis studies were performed by dissolving each complex in methanol to a concentration of 1 mM. This was then diluted using distilled water in a 10% methanol/water mixture giving a final concentration of 100 μM. The complexes were then monitored using a kinetic scan between the range 190–1100 nm scanning each minute over the course of one hour. […]

HEK293 cells = assay: MTT cell viability assay, HEK293; type: cell-based, human; conditions: for IC50: 48 h
Protocol: To assess the cytotoxicity of the four compounds a MTT cell viability assay using human embryonic kidney (HEK293) and human prostatic (PNT1A) cell lines were performed. […] The long chain compounds C1 and C3 were also shown to be non-cytotoxic towards the HEK293 cell line.
The immortalised human prostatic epithelial cell line, PNT1A (Sigma Aldrich, 95012614) was cultured in RPMI-1640 containing 10% foetal calf serum (Life Technologies, South Africa). The human embryonic kidney cell line HEK293 (ATCC) was cultured in DMEM (Life Technologies, South Africa). Both cell lines were cultured at 37 °C under 5% CO2 with 1% penicillin and streptomycin. Cancer cell cytotoxicity was evaluated using the MTT viability assay according to our previous method.[49] Briefly, cells were seeded at a density of 3 × 10^3 cells per well in 96-well plates and allowed to settle overnight. A 100 mM stock of C1/C2 and a 50 mM stock solution of C3/C4 in DMSO was prepared from which dilutions were made. The compound was then added to the cells in triplicate to obtain the indicated concentrations and 0.1% DMSO. Controls included cells treated with […] DMSO alone. After 48 h, 10 μL of 5 mg mL^−1 MTT (3-(4,5-dimethylthiazol-2-yl)-2,5-diphenyltetrazolium bromide) (Sigma-Aldrich) was added, and incubated with the cells for 4 h, followed by addition of 100 μL 10% SLS, 0.01 M HCL. The plates were read at 595 nm on a Multiscan FC plate reader (Thermo Scientific) and the data was fitted to a variable slope dose–response curve using Graphpad prism v6 to obtain the cytotoxicity IC50. The assay was repeated independently three times where inhibition was observed.

[3] = no curve could be fitted within one hour
[4] = change in absorbance at 254 nm over one hour, ExpDec1 fit

SMILES	Change in CellROX signal (intracellular ROS) (T. gondii)	E 1/2 [1] [V]	E Ox [1] [V]	E Red [1] [V]	ΔE [1] [V]	IC50 (P. falciparum, NF54) [µM]	Half-life [2, 3] [h]	Cytotoxicity towards HEK293 (HEK293 cells)	IC50 (HEK293 cells) [µM]	Half-life [2, 4] [h]	Rate constant (hydrolysis) [2, 4] [min⁻¹]
CC1CCC2C(C)C(OC(=O)CCC(=O)OCCNC(=O)[c-]3cccc3)OC3OC4(C)CCC1C32OO4.[Fe+2].c1cc[cH-]c1 (stereo not drawn) [Compound C1]	no change in CellROX signal	0.623	0.658	0.588	0.0700	3.4 ± 0.53	>1	non-cytotoxic	> 100		
CC1CCC2C(C)C(OC(=O)CCC(=O)NC[c-]3cccc3)OC3OC4(C)CCC1C32OO4.[Fe+2].c1cc[cH-]c1 (stereo not drawn) [Compound C4]	no change in CellROX signal	0.364	0.400	0.327	0.0730	0.012 ± 0.002			36 ± 2.7	0.155 ± 0.0035	0.074 ± 0.0016
CC1CCC2C(C)C(OC(=O)CCC(=O)NCCNC(=O)[c-]3cccc3)OC3OC4(C)CCC1C32OO4.[Fe+2].c1cc[cH-]c1 (stereo not drawn) [Compound C3]	increase in intracellular ROS	0.616	0.660	0.571	0.0890	4.9 ± 0.93	>1	non-cytotoxic	> 50		
